Reference: ChEMBL document CHEMBL1240359, “Micafungin concentrations from brain tissue and pancreatic pseudocyst fluid” (Antimicrob Agents Chemother, 2010)
Active and inactive are the calls of the source. The rule behind the calls is not given here. Starred links: 1 amine or outer side, 2 acyl side, 3 side chain; linkers in the order of their positions; H or OH if unused. Positions of bridges follow the written chain, without caps; N, C: chain ends. Non-standard residues stand in square brackets, D forms with d. Residues, ends and D or L forms follow the SMILES beside them. *: point of attachment. hTyr(3S-OH,4S-OH,3'-OSO3H) = N[C@H](C(=O)O)[C@H](O)[C@@H](O)c1ccc(O)c(OS(=O)(=O)O)c1; Orn(4R-OH,5R-OH) = O=C([C@H](C[C@@H](O)[C@@H](O)N[*:3])N[*:1])[*:2]; Pro(3S-OH,4S-Me) = C[C@H]1CN[C@H](C(=O)O)[C@H]1O; X1 = CCCCCOc1ccc(-c2cc(-c3ccc(C(=O)*)cc3)no2)cc1; Gln(3R-OH) = NC(=O)C[C@@H](O)[C@H](N)C(=O)O; Hyp = O=C(O)[C@@H]1C[C@@H](O)CN1

Legend:
[1] = Drug level in pancreatic pseudocyst fluid of patient with invasive candidiasis measured 24 hrs post last dose by HPLC; format: ADME; details: human, read-out: Drug uptake
Candida albicans = experiment: Antimicrobial activity against Candida albicans infected in neutropenic rabbit model of disseminated candidiasis assessed as reduction in brain microbial burden at 0.25 to 2 mg/kg/day for 10 days; format: functional, organism-based
[2] = Drug level in rabbit brain at 0.5 mg/kg/day, iv for 8 days measured 30 mins after last dose; format: ADME, organism-based, Oryctolagus cuniculus; set-up: route intravenous; details: read-out: Drug uptake
[3] = Plasma concentration in patient with invasive candidiasis measured 23 hrs post last dose by HPLC; format: ADME, organism-based; details: human
[4] = Drug level in rabbit lung at 0.5 to 2 mg/kg/day, iv for 8 days measured 30 mins after last dose; format: ADME, organism-based, Oryctolagus cuniculus; set-up: route intravenous; details: read-out: Drug uptake
[5] = Drug level in brain of patient with invasive candidiasis measured 23 hrs post last dose by HPLC; format: ADME, tissue-based; details: human, read-out: Drug uptake
[6] = Drug level in rabbit brain at 2 mg/kg/day, iv for 8 days measured 30 mins after last dose; format: ADME, organism-based, Oryctolagus cuniculus; set-up: route intravenous; details: read-out: Drug uptake
[7] = Drug level in rabbit kidney at 0.5 to 2 mg/kg/day, iv for 8 days measured 30 mins after last dose; format: ADME, organism-based, Oryctolagus cuniculus; set-up: route intravenous; details: read-out: Drug uptake
[8] = Drug level in rabbit brain at 1 mg/kg/day, iv for 8 days measured 30 mins after last dose; format: ADME, organism-based, Oryctolagus cuniculus; set-up: route intravenous; details: read-out: Drug uptake

In the case of `CCCCCOc1ccc(-c2cc(-c3ccc(C(=O)N[C@H]4C[C@@H](O)[C@@H](O)NC(=O)[C@@H]5[C@@H](O)[C@@H](C)CN5C(=O)[C@H]([C@H](O)CC(N)=O)NC(=O)[C@H]([C@H](O)[C@@H](O)c5ccc(O)c(OS(=O)(=O)O)c5)NC(=O)[C@@H]5C[C@@H](O)CN5C(=O)[C@H]([C@@H](C)O)NC4=O)cc3)no2)cc1` [MICAFUNGIN] (X1-[Orn(4R-OH,5R-OH)]T[Hyp][hTyr(3S-OH,4S-OH,3'-OSO3H)][Gln(3R-OH)][Pro(3S-OH,4S-Me)]; lactam 1-C), the concentration at 24 h [1] is reported as 380 ng/mL, the inhibition (Candida albicans) is reported as “Active” and the concentration at 0.5 h [2] is reported as 80 ng/g. The concentration at 23 h [3] was 1580 ng/mL, the concentration at 0.5 h [4] was 2260 ng/g and the concentration at 23 h [5] was 280 ng/mL. For the same compound, the concentration at 0.5 h [6] was 180 ng/g, the concentration at 0.5 h [7] was 1400 ng/g and the concentration at 0.5 h [8] was 100 ng/g.
